Results published in PubChem BioAssay AID328 (DTP/NCI, 2004).
“And” between values parts separate entries of the source, which are not always exact repeats. Equal values may be shown once. Inconclusive results and toxic doses are left out.

Test system: BDF1 mice, P388 leukemia ip, median survival T/C
Experiment: NCI In Vivo Anticancer Drug Screen. Data for tumor model P388 Leukemia (intraperitoneal) in B6D2F1 (BDF1) mice
Details: endpoint: median survival time, higher = longer survival
Method in brief: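 Compound-treated tumour-bearing mice were compared with vehicle-treated controls. Survival was recorded, and the value is the treated-group measurement divided by the control-group measurement (T/C).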

[1] = dose: 12.5 mg/kg/injection, schedule: Q01DX009 (ip), vehicle: water
[2] = dose: 25.0 mg/kg/injection, schedule: Q04DX003 (ip), vehicle: water
[3] = dose: 50.0 mg/kg/injection, schedule: Q04DX003 (ip), vehicle: water
[4] = dose: 50.0 mg/kg/injection, schedule: Q01DX009 (ip), vehicle: saline with Tween-80
[5] = dose: 100.0 mg/kg/injection, schedule: Q01DX009 (ip), vehicle: saline with Tween-80
[6] = dose: 200.0 mg/kg/injection, schedule: Q01DX009 (ip), vehicle: saline with Tween-80
[7] = dose: 25.0 mg/kg/injection, schedule: Q04DX003 (ip), vehicle: saline with Tween-80
[8] = dose: 50.0 mg/kg/injection, schedule: Q04DX003 (ip), vehicle: saline with Tween-80
[9] = dose: 100.0 mg/kg/injection, schedule: Q04DX003 (ip), vehicle: saline with Tween-80
[10] = dose: 100.0 mg/kg/injection, schedule: Q04DX003 (ip), vehicle: other
[11] = dose: 200.0 mg/kg/injection, schedule: Q04DX003 (ip), vehicle: other
[12] = dose: 25.0 mg/kg/injection, schedule: Q01DX009 (ip), vehicle: saline with Tween-80
[13] = dose: 100.0 mg/kg/injection, schedule: Q04DX003 (ip), vehicle: saline sonified
[14] = dose: 200.0 mg/kg/injection, schedule: Q04DX003 (ip), vehicle: saline sonified
[15] = dose: 400.0 mg/kg/injection, schedule: Q04DX003 (ip), vehicle: saline sonified
[16] = dose: 12.5 mg/kg/injection, schedule: Q01DX001 (ip), vehicle: Klucel (hydroxypropylcellulose) (HPC)

For O=S(=O)(O)O.[NH-]CC(N)=O.[NH-]CC(N)=O.[Ni+2], the T/C (dose: 6.25 mg/kg/injection, schedule: Q01DX009 (ip), vehicle: water) was 115 % of control, the T/C [1] was 110 % of control and the T/C (dose: 12.5 mg/kg/injection, schedule: Q04DX003 (ip), vehicle: water) was 100 % of control. The T/C [2] was 90 % of control and the T/C [3] was 109 % of control.

For O=Ic1ccccc1, the T/C (dose: 6.25 mg/kg/injection, schedule: Q01DX009 (ip), vehicle: Klucel (hydroxypropylcellulose) (HPC)) was 105 % of control and 118 % of control, the T/C (dose: 12.5 mg/kg/injection, schedule: Q01DX009 (ip), vehicle: Klucel (hydroxypropylcellulose) (HPC)) was 105 % of control and 116 % of control and the T/C (dose: 25.0 mg/kg/injection, schedule: Q01DX009 (ip), vehicle: Klucel (hydroxypropylcellulose) (HPC)) was 122 % of control and 124 % of control and 204 % of control. The T/C (dose: 50.0 mg/kg/injection, schedule: Q04DX003 (ip), vehicle: Klucel (hydroxypropylcellulose) (HPC)) was 104 % of control and the T/C (dose: 100.0 mg/kg/injection, schedule: Q04DX003 (ip), vehicle: Klucel (hydroxypropylcellulose) (HPC)) was 95 % of control.

In the case of O=C(Nc1ccccc1)OCCBr, the T/C [4] is reported as 99 % of control, the T/C [5] is reported as 107 % of control and the T/C [6] is reported as 107 % of control.

In the case of FC(F)(F)c1cccc(C(c2ccccc2)(c2ccccc2)n2cncn2)c1, the T/C [4] is reported as 114 % of control, the T/C [5] is reported as 109 % of control and the T/C [6] is reported as 100 % of control.

For COc1cc2cc(c1Cl)N(C)C(=O)CC(O)C1(C)OC1C(C)C1CC(O)(NC(=O)O1)C(OC)C=C/C=C(\C)C2 (stereo unspecified), the T/C (dose: 1.8 micrograms/kg/injection, schedule: Q01DX009 (ip), vehicle: saline + alcohol) was 102 % of control, the T/C (dose: 3.1 micrograms/kg/injection, schedule: Q01DX009 (ip), vehicle: saline + alcohol) was 102 % of control and 115 % of control and the T/C (dose: 6.2 micrograms/kg/injection, schedule: Q01DX009 (ip), vehicle: saline + alcohol) was 102 % of control and 108 % of control. The T/C (dose: 12.5 micrograms/kg/injection, schedule: Q01DX009 (ip), vehicle: saline + alcohol) was 102 % of control and 108 % of control, the T/C (dose: 25.0 micrograms/kg/injection, schedule: Q01DX009 (ip), vehicle: saline + alcohol) was 94 % of control and 113 % of control and the T/C (dose: 50.0 micrograms/kg/injection, schedule: Q01DX009 (ip), vehicle: saline + alcohol) was 94 % of control and 112 % of control. The T/C (dose: 100.0 micrograms/kg/injection, schedule: Q01DX009 (ip), vehicle: saline + alcohol) was 94 % of control and 105 % of control, the T/C (dose: 200.0 micrograms/kg/injection, schedule: Q01DX009 (ip), vehicle: saline + alcohol) was 108 % of control and 112 % of control and the T/C (dose: 400.0 micrograms/kg/injection, schedule: Q01DX009 (ip), vehicle: saline + alcohol) was 102 % of control.

For Fc1nc2nc(C(F)(F)F)[nH]c2nc1F, the T/C (dose: 10.0 mg/kg/injection, schedule: Q01DX009 (ip), vehicle: saline with Tween-80) was 104 % of control, the T/C (dose: 20.0 mg/kg/injection, schedule: Q01DX009 (ip), vehicle: saline with Tween-80) was 121 % of control and the T/C [7] was 105 % of control. For the same compound, the T/C (dose: 40.0 mg/kg/injection, schedule: Q01DX009 (ip), vehicle: saline with Tween-80) was 120 % of control, the T/C [8] was 99 % of control and the T/C (dose: 80.0 mg/kg/injection, schedule: Q01DX009 (ip), vehicle: saline with Tween-80) was 112 % of control. For the same compound, the T/C [9] was 90 % of control and 105 % of control and the T/C (dose: 160.0 mg/kg/injection, schedule: Q01DX009 (ip), vehicle: saline with Tween-80) was 112 % of control.

ICCCCCCCCCC[n+]1ccc2ccccc2c1 was tested, and the T/C (dose: 12.5 mg/kg/injection, schedule: Q01DX005 (ip), vehicle: saline with Tween-80) was 120 % of control and the T/C (dose: 25.0 mg/kg/injection, schedule: Q01DX005 (ip), vehicle: saline with Tween-80) was 122 % of control.

For OCCN1CCN(CCCN2c3ccccc3Oc3ccc(C(F)(F)F)cc32)CC1, the T/C (dose: 15.0 mg/kg/injection, schedule: Q04DX003 (ip), vehicle: saline) was 105 % of control, the T/C (dose: 25.0 mg/kg/injection, schedule: Q01DX009 (ip), vehicle: saline) was 104 % of control and the T/C (dose: 30.0 mg/kg/injection, schedule: Q04DX003 (ip), vehicle: saline) was 115 % of control. For the same compound, the T/C (dose: 50.0 mg/kg/injection, schedule: Q01DX009 (ip), vehicle: Klucel (hydroxypropylcellulose) (HPC)) was 150 % of control and the T/C (dose: 120.0 mg/kg/injection, schedule: Q04DX003 (ip), vehicle: saline) was 105 % of control.

With CCC(C)(C)c1ccc(Oc2ccccc2)c(N)c1 the T/C [10] was 109 % of control and the T/C [11] was 113 % of control.

With CC(C)CC(=O)CC1(C)CCC(c2ccoc2)O1 (stereo unspecified) the T/C [12] was 96 % of control and 100 % of control, the T/C [4] was 97 % of control and 105 % of control and the T/C [5] was 103 % of control and 110 % of control. The T/C [6] was 117 % of control.

With OCCNc1ccc(I)cc1 the T/C [10] was 113 % of control, the T/C [11] was 122 % of control and the T/C (dose: 400.0 mg/kg/injection, schedule: Q04DX003 (ip), vehicle: other) was 104 % of control.

With CCC(=O)c1ccc(OCC(O)CN2CCC(O)(c3ccccc3)CC2)cc1 (stereo unspecified) the T/C [12] was 111 % of control, the T/C [7] was 109 % of control and the T/C [4] was 103 % of control. For the same compound, the T/C [8] was 109 % of control, the T/C [5] was 88 % of control and the T/C [9] was 104 % of control.

COc1cc2c(cc1I)-c1c(cc(OC)c(OC)c1OC)CC[C@@H]2NC(C)=O was tested, and the T/C [13] was 100 % of control, the T/C [14] was 108 % of control and the T/C [15] was 100 % of control.

For O=C(O)C1=CC(O)C(O)C(O)C1 (stereo unspecified), the T/C (dose: 50.0 mg/kg/injection, schedule: Q01DX009 (ip), vehicle: saline) was 87 % of control, the T/C (dose: 100.0 mg/kg/injection, schedule: Q01DX009 (ip), vehicle: saline) was 100 % of control and the T/C [13] was 100 % of control. For the same compound, the T/C (dose: 200.0 mg/kg/injection, schedule: Q01DX009 (ip), vehicle: saline) was 91 % of control, the T/C [14] was 100 % of control and the T/C [15] was 100 % of control.

For C[N+](C)(C)c1ccc2ccccc2n1, the T/C (dose: 3.12 mg/kg/injection, schedule: Q01DX001 (ip), vehicle: Klucel (hydroxypropylcellulose) (HPC)) was 122 % of control, the T/C (dose: 6.25 mg/kg/injection, schedule: Q01DX001 (ip), vehicle: Klucel (hydroxypropylcellulose) (HPC)) was 110 % of control and the T/C [16] was 122 % of control. The T/C (dose: 18.5 mg/kg/injection, schedule: Q01DX001 (ip), vehicle: Klucel (hydroxypropylcellulose) (HPC)) was 112 % of control, the T/C (dose: 25.0 mg/kg/injection, schedule: Q01DX001 (ip), vehicle: saline) was 120 % of control and the T/C (dose: 50.0 mg/kg/injection, schedule: Q01DX001 (ip), vehicle: saline) was 118 % of control.

For CCN(CC)CCCNc1cccc2c(C)cc(OC)nc12, the T/C [4] was 97 % of control and the T/C [5] was 114 % of control.

For CC1=NNC(=O)/C1=C\c1ccc(N(C)C)cc1, the T/C [12] was 95 % of control and the T/C [5] was 93 % of control.

For COc1ccc(CNCCNCc2ccc(OC)cc2)cc1, the T/C [1] was 98 % of control, the T/C (dose: 25.0 mg/kg/injection, schedule: Q01DX009 (ip), vehicle: water) was 100 % of control and the T/C [2] was 95 % of control. For the same compound, the T/C (dose: 50.0 mg/kg/injection, schedule: Q01DX009 (ip), vehicle: water) was 115 % of control, the T/C [3] was 95 % of control and the T/C (dose: 100.0 mg/kg/injection, schedule: Q01DX009 (ip), vehicle: water) was 92 % of control and 107 % of control. For the same compound, the T/C (dose: 100.0 mg/kg/injection, schedule: Q04DX003 (ip), vehicle: water) was 100 % of control and 109 % of control.

In the case of C[C@]12CC[C@H](OC(=O)Cc3ccc(N(CCCl)CCCl)cc3)CC1=CC[C@@H]1[C@@H]2CC[C@]2(C)C(=O)CC[C@@H]12, the T/C (dose: 115.0 mg/kg/injection, schedule: Q04DX003 (ip), vehicle: saline with Tween-80) is reported as 113 % of control, the T/C [6] is reported as 215 % of control and the T/C (dose: 400.0 mg/kg/injection, schedule: Q04DX003 (ip), vehicle: alcohol) is reported as 159 % of control. For the same compound, the T/C (dose: 600.0 mg/kg/injection, schedule: Q04DX003 (ip), vehicle: alcohol) was 272 % of control.

In the case of [O-]/C(CCCl)=N\[n+]1c2c(nc3ccccc31)-c1cccc3cccc-2c13, the T/C [16] is reported as 102 % of control, the T/C (dose: 25.0 mg/kg/injection, schedule: Q01DX001 (ip), vehicle: Klucel (hydroxypropylcellulose) (HPC)) is reported as 100 % of control and the T/C (dose: 50.0 mg/kg/injection, schedule: Q01DX001 (ip), vehicle: Klucel (hydroxypropylcellulose) (HPC)) is reported as 102 % of control.

For CCN1CCCC(Nc2nc(Nc3cc(Cl)cc(Cl)c3)nc3cc(Cl)ccc23)C1 (stereo unspecified), the T/C (dose: 37.5 mg/kg/injection, schedule: Q01DX001 (ip), vehicle: saline sonified) was 120 % of control, the T/C (dose: 75.0 mg/kg/injection, schedule: Q01DX001 (ip), vehicle: saline sonified) was 115 % of control and the T/C (dose: 150.0 mg/kg/injection, schedule: Q01DX001 (ip), vehicle: saline sonified) was 120 % of control.
